{"source": "paper PMC10721898", "about": "“C5 methylation confers accessibility, stability and selectivity to picrotoxinin” (Nature Communications, 2023)", "key": {"[1]": {"test": "Stability in mouse plasma", "type": "in vitro ADME", "text": "(§1) We investigated the relative rates of esterase-mediated hydrolysis[17] observed in mouse and human plasma, to evaluate potential for future translational applications. […] Due to the high stability of the C15 lactone, identified above, combined with the kinetic lability and reversible opening of the C11 lactone identified previously, enzymatic degradation in serum likely reflects a combination of reversible C11 hydrolysis[38] (unaffected by C5 methylation) and irreversible C15 hydrolysis (obstructed by C5 methylation)[17]. No prior studies have identified PXN modifications that enhance metabolic stability, partly due to the difficulty of synthetic modification and partly due to the prior incorrect assignment of the site of kinetic hydrolysis (C11 vs. C15)[38].\n(§2) Test compound working solution: 5 μL of tested compound stock solution (10 mM in DMSO) were diluted with 495 μL of DMSO (concentration: 100 μM, 100% DMSO). Propantheline bromide working solution: 5 μL of propantheline bromide stock solution (10 mM in DMSO) were diluted with 495 μL of H2O (concentration: 100 […]\n(§3) Supplementary Table 6. Test system.\n(§4) Species/ Matrix Minimum No. of Anticoagulant Vendor\n(§5) CD-1 Mouse 20 Male EDTA-K2 Beijing Vital River Laboratory\n(§6) Human Plasma 3 Male & 3 Female EDTA-K2 BioreclamationIVT\n(§7) The pooled frozen plasma was thawed in a water bath at 37 °C prior to experiment. Plasma was centrifuged at 1968 g (4000 rpm) for 5 min and the clots were removed. Using an Apricot automation work station, 98 μL/well of blank plasma were added to all 96-well reaction plates. (Blank, T0, T10, T30, T60 and T120) . An Apricot automation workstation was used to add 2 μL/well of working solution (100 μM) to all reaction plates except Blank. (T0, T10, T30, T60 and T120) . All reaction plates containing mix tures of compound a nd plasma were incubated at 37 °C in water bath. The reaction plates were incubated at 37 °C, and timer was started. At the end of incubation, 400 μL of stock solution was added (200 ng/mL tolbutamide and 200 ng/mL labetalol in MeCN) to precipitate protein and mixed thoroughly. Each plate was sealed and shaken for 20 minutes, then centrifuged at 1968 g (4000 rpm) and 4 °C for 20 minutes. After centrifugation, an Apricot automation workstation was used to transfer 150 μL supernatant. Each bioanalysis plate was sealed and shaken for 10 minutes prior to LC -MS/MS […]\n(§8) The % remaining of test compound after incubation in plasma was calculated using following equation:\n(§9) % Remaining= 100 x (PAR at appointed incubation time / PAR at T0 time) where PAR is the peak area ratio of analyte versus internal standard (IS) The appointed incubation time points are T0 (0 min), Tn (n=0, 10, 30, 60, 120 min)\n(§10) Supplementary Table 7. %Remaining of test compound in two plasmas.\n(§11) Compound Time point (min) % Remaining T½ (min)"}, "[2]": {"test": "Stability in human plasma", "type": "in vitro ADME", "text": "as §1, §2, §3, §4, §5, §6, §7, §8, §9, §10, §11"}, "[3]": {"test": "Methanolysis with NaOMe in d4-methanol (1H NMR monitoring)", "type": "physicochemical", "details": "for concentration in competitive methanolysis: 5 mol% NaOMe in CD3OD", "text": "Even addition of 2 equivalents NaOMe had no effect on 5MePXN (Fig. 3b and SI), far exceeding the tolerance of PXN. Thus, C5 methylation stabilized PXN against buffered water hydrolysis, acidic hydrolysis and alkaline methanolysis (Fig. 3a–d, see also ref. [21]). This profound stabilization highlighted the unique effects to reactivity imparted by C5 methylation. Furthermore, it opened a window into understanding differences in blood degradation of 5MePXN.\nSupplementary Figure 4. Competitive methanolysis of PXN and 5MePXN under 5 mol% NaOMe in CD3OD.\n(a) 0 min, (b) 10 min, (c) 30 min, (d) 60 min, (e) 100 min, (f) 140 min, (g) 280 min.\nSupplementary Table 5. Concentration of each component in competitive methanolysis. […]\nSupplementary Figure 5. Concentration of PXN, d5-33, d9-34 and 5MePXN vs. time (min) 3.4 Methanolysis of 5MePXN under different equivalent of NaOMe in CD3OD To a solution of 5MePXN (2.5 mg, 0.0082 mmol ) in CD 3OD (0.4 mL) in 5 mm NMR tube was added a solution of NaOMe in CD3OD (0.1, 0.2, 0.5, 0.8, 1.0, 1.5 and 2.0 equiv) at room temperature. The NMR tube was shaken bottom up 5 times to make solution homogenous, then measured by 1H NMR."}, "[4]": {"test": "Degradation in dilute sulfuric acid", "type": "physicochemical"}, "[5]": {"details": "D2O, 8.2 pH*; previously observed; cited from earlier work"}, "[6]": {"details": "37 °C, incubation to 120 min, extrapolated half-life, n = 2"}}, "note": "Entries after “also recorded” stand apart in the source; their conditions may differ.", "data": [{"smiles": "C=C(C)[C@@H]1[C@H]2OC(=O)[C@@H]1[C@]1(O)C[C@H]3O[C@]34C(=O)O[C@H]2[C@]14C", "note": "[PXN, picrotoxinin]", "values": [{"measurement": "T½ in mouse plasma", "setting": "[1]; [6]", "value": 97, "unit": "min"}, {"measurement": "half-life at 2 µM", "setting": "[1]; male, CD-1, mouse, plasma, 37 °C, incubation to 120 min, extrapolated half-life, n = 2, read-out: T½ in mouse plasma", "value": 97.3, "unit": "min"}, {"measurement": "remaining at 0 h, 2 µM", "setting": "[1]; male, CD-1, mouse, plasma, 0 min", "value": 100, "unit": "%"}, {"measurement": "remaining at 10 min, 2 µM", "setting": "[1]; male, CD-1, mouse, plasma, 10 min", "value": 102, "unit": "%"}, {"measurement": "remaining at 0.5 h, 2 µM", "setting": "[1]; male, CD-1, mouse, plasma, 30 min", "value": 87.1, "unit": "%"}, {"measurement": "remaining at 1 h, 2 µM", "setting": "[1]; male, CD-1, mouse, plasma, 60 min", "value": 67.4, "unit": "%"}, {"measurement": "remaining at 2 h, 2 µM", "setting": "[1]; male, CD-1, mouse, plasma, 120 min", "value": 44.7, "unit": "%"}, {"measurement": "T½ in human plasma", "setting": "[2]; [6]", "value": 108, "unit": "min"}, {"measurement": "half-life at 2 µM", "setting": "[2]; both sexes, human, plasma, 37 °C, incubation to 120 min, extrapolated half-life, n = 2, read-out: T½ in human plasma", "value": 108, "unit": "min"}, {"measurement": "remaining at 0 h, 2 µM", "setting": "[2]; both sexes, human, plasma, 0 min", "value": 100, "unit": "%"}, {"measurement": "remaining at 10 min, 2 µM", "setting": "[2]; both sexes, human, plasma, 10 min", "value": 130, "unit": "%"}, {"measurement": "remaining at 0.5 h, 2 µM", "setting": "[2]; both sexes, human, plasma, 30 min", "value": 114, "unit": "%"}, {"measurement": "remaining at 1 h, 2 µM", "setting": "[2]; both sexes, human, plasma, 60 min", "value": 72.9, "unit": "%"}, {"measurement": "remaining at 2 h, 2 µM", "setting": "[2]; both sexes, human, plasma, 120 min", "value": 55.8, "unit": "%"}, {"measurement": "stability to catalytic NaOMe", "setting": "[3]; 5 mol % NaOMe, d4-methanol, 22 °C", "value": "equimolar mixture of d5-methyl picrotoxate (d5-33) and d9-dimethyl picrotoxinin dicarboxylate (d9-34) in 6 h; also recorded: unstable"}, {"measurement": "concentration in competitive methanolysis", "setting": "[3]; 0 min", "value": 3.4246, "unit": "mM"}, {"measurement": "concentration in competitive methanolysis", "setting": "[3]; 5 min", "value": 2.952, "unit": "mM"}, {"measurement": "concentration in competitive methanolysis", "setting": "[3]; 10 min", "value": 2.5, "unit": "mM"}, {"measurement": "concentration in competitive methanolysis", "setting": "[3]; 15 min", "value": 2.181, "unit": "mM"}, {"measurement": "concentration in competitive methanolysis", "setting": "[3]; 20 min", "value": 1.935, "unit": "mM"}, {"measurement": "concentration in competitive methanolysis", "setting": "[3]; 25 min", "value": 1.679, "unit": "mM"}, {"measurement": "concentration in competitive methanolysis", "setting": "[3]; 30 min", "value": 1.564, "unit": "mM"}, {"measurement": "concentration in competitive methanolysis", "setting": "[3]; 35 min", "value": 1.495, "unit": "mM"}, {"measurement": "concentration in competitive methanolysis", "setting": "[3]; 40 min", "value": 1.464, "unit": "mM"}, {"measurement": "concentration in competitive methanolysis", "setting": "[3]; 45 min", "value": 1.375, "unit": "mM"}, {"measurement": "concentration in competitive methanolysis", "setting": "[3]; 50 min", "value": 1.307, "unit": "mM"}, {"measurement": "concentration in competitive methanolysis", "setting": "[3]; 55 min", "value": 1.223, "unit": "mM"}, {"measurement": "concentration in competitive methanolysis", "setting": "[3]; 60 min", "value": 1.119, "unit": "mM"}, {"measurement": "concentration in competitive methanolysis", "setting": "[3]; 65 min", "value": 1.044, "unit": "mM"}, {"measurement": "concentration in competitive methanolysis", "setting": "[3]; 70 min", "value": 0.962, "unit": "mM"}, {"measurement": "concentration in competitive methanolysis", "setting": "[3]; 75 min", "value": 0.9256, "unit": "mM"}, {"measurement": "concentration in competitive methanolysis", "setting": "[3]; 80 min", "value": 0.8561, "unit": "mM"}, {"measurement": "concentration in competitive methanolysis", "setting": "[3]; 85 min", "value": 0.8001, "unit": "mM"}, {"measurement": "concentration in competitive methanolysis", "setting": "[3]; 90 min", "value": 0.773, "unit": "mM"}, {"measurement": "concentration in competitive methanolysis", "setting": "[3]; 95 min", "value": 0.7302, "unit": "mM"}, {"measurement": "concentration in competitive methanolysis", "setting": "[3]; 100 min", "value": 0.7047, "unit": "mM"}, {"measurement": "concentration in competitive methanolysis", "setting": "[3]; 110 min", "value": 0.6115, "unit": "mM"}, {"measurement": "concentration in competitive methanolysis", "setting": "[3]; 120 min", "value": 0.5605, "unit": "mM"}, {"measurement": "concentration in competitive methanolysis", "setting": "[3]; 130 min", "value": 0.515, "unit": "mM"}, {"measurement": "concentration in competitive methanolysis", "setting": "[3]; 140 min", "value": 0.4666, "unit": "mM"}, {"measurement": "concentration in competitive methanolysis", "setting": "[3]; 280 min", "value": 0.2158, "unit": "mM"}, {"measurement": "competition experiment, 1:1 mixture of PXN and 5MePXN", "setting": "[3]; 5 mol% NaOMe, d4-methanol", "value": "completely degraded"}, {"measurement": "stability to acid", "setting": "[4]; 1 mol % H2SO4 (Fig. 1b)", "value": "unstable"}, {"measurement": "degradation in acid", "setting": "[4]; warming, 1% H2SO4, 0.18 M, aqueous", "value": "clean conversion to picrotoxic acid (32) in 24 h"}, {"measurement": "t1/2 of degradation (pseudo-first order)", "setting": "[5]", "value": 60, "unit": "h"}]}]}
